In paper PMC6058667 (Drug Delivery, 2018):

Key:
[1] = system: HepG-2 cells; assay: MTT cytotoxicity assay; format: cell-based; conditions: HepG-2 hepatoma cell line, 48 h
Protocol: The in vitro cytotoxicity of CuB-MMs-CPs was assessed using the MTT assay. HepG-2 cells were seeded onto 96-well plates in 200 μL. DMEM was applied to obtain a concentration of 5000 cells per well and cultured at 37 °C, 5% CO2 for 24 h to allow attachment of cells. […] The percentage of cell viability was calculated on the basis of the optical density values at 490 nm of the sample wells, which contained cells treated with the culture medium.

[2] = system: HepG-2 xenografts; assay: Antitumor study in nude mice bearing HepG-2 xenografts; format: in vivo; conditions: oral, equivalent CuB dose 2 mg/kg, versus saline
Protocol: For in vivo study, we used a nude mouse as a model for HepG-2 […]. […] All treatments were orally administered on days 1, 3, 5, 7, 9, 11, 13, 15, 17, 19, and 21. The volume of the tumor was measured daily. On day 22, mice were killed and tumors were weighed.

Cucurbitacin B [CuB]
IC50 [1]: 104 ± 50.3 nM
Tumor growth [2]: slightly slower growth than animals administered with saline
